# Experimental data published in patent publication US20040022788A1, “Compositions and methods for promoting or inhibiting angiogenesis” (priority 1998, published 2004).
# “Also recorded” adds a separate entry of the source.
# What was measured:
# HUVEC [1] = test: HUVEC proliferation assay (MTS/PMS); type: cell-based, human; conditions: for Percent proliferation inhibited, ±SEM, Without Antibody: 24 h
# Protocol: Proliferation Assay. HUVEC were plated at a density of 5,000 cells/well in media depleted of FCS overnight to allow the cells to become quiescent. […] In some experiments antibody directed against the alpha subunit of ATP synthase derived from E. coli was also added at a dilution of 1:10. MTS/PMS [(3-(4,5-dimethylthiazol-2-yl)-5-(3-carboxymethoxyphenyl)-2-(4-sulfophenyl)-2H-tetrazolium inner salt/phenazine methosulfate] solution was added after 24 h, and the absorbance of formazan was quantitated on a Thermomax plate reader at a wavelength of 490 nm according to the manufacturer's specifications (Promega). The absorbance values used to calculate the percent proliferation of the cells ranged from 0.81 for untreated, 0.60 for treated, and 0.47 for baseline quiescent cells.
# Anti-alpha-subunit ATP synthase antibody derived from E. coli was added concomitantly at a dilution of 1:10. MTS/PMS solution was added and absorbance of formazan was quantitated according to the manufacturer's specifications. Results represent three separate experiments performed in duplicate with SEM. Percent recovery represents the ability of the anti-alpha-subunit ATP synthase antibody to block the antiproliferative effect of angiostatin, and thereby restore proliferation to an average of 81% of that obtained with the control cells.
# [2] = system: plasminogen binding sites on HUVEC; test: Competition binding assay, 125I-labeled plasminogen on HUVEC; design: species or system human; conditions: 1.0 μM 125I-labeled plasminogen; 100-fold molar excess of unlabeled angiostatin
# Protocol: FIG. 2. Competition binding assay between plasminogen and angiostatin. HUVEC were plated at a density of 10,000 cells/well and incubated with 1.0 μM ^125I-labeled plasminogen in the presence of 100-fold molar excess of unlabeled angiostatin for 1 h at 4° C. Cells were washed and the remaining radioactivity was quantified by γ-counting.
# (§1) Binding Assays. Ligands were radioiodinated by using Iodobeads (Pierce), repurified on L-lysine-Sepharose, eluted with 100 mM ε-aminocaproic acid, and dialyzed in PBS, pH 7.0 before use in binding assays. HUVEC were plated at a density of 5,000 or 10,000 cells/well and incubated with increasing concentrations of ^125I-labeled ligand in media containing 1% BSA for 1 h at 4° C. in 96-well plates. Wells were washed, and remaining bound radioactivity was quantified by using an LKB 1272 γ-radiation counter. Nonspecific binding was measured in the presence of excess unlabeled ligand.
# HUVEC [3] = test: Direct binding of 125I-labeled plasminogen or angiostatin to endothelial cells, Scatchard analysis; design: species or system human; conditions: 125I-labeled ligand, 1 h at 4° C., read-out: apparent dissociation constant (Kd)
# Protocol: FIGS. 1A and 1B. Direct binding assay and Scatchard analysis of plasminogen and angiostatin with endothelial cells. HUVEC were plated at a density of 10,000 cells/well and incubated with increasing concentrations of ^125I-labeled-plasminogen or angiostatin. FIG. 1A. ^125I-labeled plasminogen binding was concentration-dependent and saturable with an apparent dissociation constant ([…]) of 158 nM and 870,000 sites/cell. FIG. 1B. […] Error bars represent standard deviation.
# as §1
# [4] = target: T1, recombinant alpha subunit of human ATP synthase (Homo sapiens, UniProt P25705); test: Ligand blot binding to the recombinant alpha subunit of ATP synthase; conditions: ligand blot
# T1 construct: His tag; made in house; host or cells: E. coli BL21DE3
# T1 sequence (P25705 44-553): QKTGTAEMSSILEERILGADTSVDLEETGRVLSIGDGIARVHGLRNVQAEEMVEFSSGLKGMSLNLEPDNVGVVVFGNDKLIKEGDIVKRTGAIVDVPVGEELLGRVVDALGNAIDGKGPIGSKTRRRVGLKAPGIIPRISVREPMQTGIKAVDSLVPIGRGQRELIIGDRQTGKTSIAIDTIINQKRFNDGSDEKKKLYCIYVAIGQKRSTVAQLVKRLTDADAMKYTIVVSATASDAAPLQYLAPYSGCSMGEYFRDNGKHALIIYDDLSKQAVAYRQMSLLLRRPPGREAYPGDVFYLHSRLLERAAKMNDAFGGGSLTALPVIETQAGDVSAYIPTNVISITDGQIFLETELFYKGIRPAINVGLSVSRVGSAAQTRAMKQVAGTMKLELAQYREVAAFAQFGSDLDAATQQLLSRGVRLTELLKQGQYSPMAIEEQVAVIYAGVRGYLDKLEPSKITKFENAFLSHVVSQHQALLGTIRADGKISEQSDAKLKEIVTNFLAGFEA
# Protocol: FIGS. 7A-7E. Angiostatin binding to the recombinant alpha subunit of human ATP synthase. The alpha subunit of human ATP synthase was cloned and expressed in E. coli and purified using Qiagen's nickel-Sepharose protein purification system before dialyzing in phosphate buffered saline (PBS), pH 7.0. Recombinant protein was electrophoresed on 5-15% SDS-PAGE, electroblotted onto Immobilon™ membrane and incubated 18 h in 10 mM Tris-HCl, 0.15M NaCl, 0.05% NP40, pH 7.5 (TSN) containing ^125I-angiostatin. For competition studies, unlabeled ligand was added 4 h prior to radiolabeled ligand. Blots were washed in TSN buffer containing 0.05% Tween80 and bound radioactivity was quantified on a Molecular Dynamics PhosphorImager™.
# Purification of the alpha-Subunit of ATP Synthase. Competent E. coli BL21DE3 were transformed with the pET24a(+) vector containing the alpha subunit, plated on 2× Bacto-yeast tryptone (YT) agarose, and grown overnight at 37° C. Twenty milliliters of 2× YT containing […] kanamycin was inoculated with one colony and grown overnight at 37° C. (200 rpm). A 1-liter culture (2× YT, […] kanamycin) was inoculated with 20 ml of the noninduced overnight culture and grown at 37° C. to an OD of 0.6 at a wavelength of 600 nm. Isopropyl […] was added to a final concentration of 1 mM and grown for an additional 3 h. Cells were harvested by centrifugation at 8,000 rpm for 10 min and stored overnight at −20° C. Lysates were prepared under denaturing conditions and batch-purified by using Qiagen Ni-NTA agarose. Resulting protein was dialyzed against PBS, pH 7.0 for use in all experiments.
# HUVEC [5] = test: HUVEC cell proliferation assay (CyQUANT); type: cell-based, human; conditions: 1 μM; 24 hrs; n = 3
# Protocol: Cell Proliferation Assay. HUVEC were plated at a density of 5000 cells/well in media depleted of fetal calf serum (FCS) overnight to allow the cells to become quiescent. Fresh media containing 5% FCS, 10 ng/ml basic fibroblast growth factor (bFGF) and 3 ng/ml vascular endothelial growth factor (VEGF) were added to the wells along with angiostatin (1.0 μM), antibody directed against the recombinant human alpha-subunit of ATP synthase (1:10 dil), antibody directed against the recombinant human beta-subunit of ATP synthase (1:10 dil), pre-immune serum (1:10 dil) or cycloheximide ([…]). Cell density was measured after 24 hrs using CyQUANT Cell Proliferation Assay Kit (Molecular Probes) in a fluorometric plate reader (Molecular Devices). The absorbance values used to calculate the percent proliferation of the cells ranged from 1.24 or 1.00 for treated and 2.57 for untreated.
substance,measurement,setting,value
angiostatin,"Percent proliferation inhibited, ±SEM, With antibody",HUVEC [1]; angiostatin 0.5 μM plus anti-alpha subunit ATP synthase antibody 1:10,1 ± 0.2%
same,"Percent proliferation inhibited, ±SEM, Without Antibody",HUVEC [1]; angiostatin 0.5 μM,10 ± 1.4%
same,"Percent proliferation inhibited, ±SEM, With antibody",HUVEC [1]; angiostatin 0.75 μM plus anti-alpha subunit ATP synthase antibody 1:10,5 ± 4.1%
same,"Percent proliferation inhibited, ±SEM, Without Antibody",HUVEC [1]; angiostatin 0.75 μM,25 ± 4.2%
same,"Percent proliferation inhibited, ±SEM, With antibody",HUVEC [1]; angiostatin 1.0 μM plus anti-alpha subunit ATP synthase antibody 1:10,6 ± 0.8%
same,"Percent proliferation inhibited, ±SEM, Without Antibody",HUVEC [1]; angiostatin 1.0 μM,23 ± 9.0%
same,inhibition of 125I-labeled plasminogen binding,[2],unaffected; also recorded: no inhibition; also recorded: not inhibited
same,Kd,HUVEC [3],0.245 µM
same,binding of 125I-labeled ligand to recombinant alpha subunit,[4],bound
same,Percent Inhibition (+/− S.E.M.) of HUVEC proliferation,HUVEC [5],57.2 +/− 1.16%
